Experimental data from ChEMBL document CHEMBL5505975, “Design, synthesis and biological evaluation of CDC20 inhibitors for treatment of triple-negative breast cancer” (Eur J Med Chem, 2024).
The source made the active and inactive calls. The calls are words filed in the database; no cut-off is given here.

Key:
[1] = Toxicity in female BALB/C mouse implanted with mouse 4T1 cells assessed as kidney damage at 20 to 50 mg/kg, po administered every two days for 21 days by H and E staining based analysis; format: organism-based; conditions: in vivo, 504 h, dose 20-50 mg/kg, time 21 day
MDA-MB-231 [2] = experiment: Induction of apoptosis in human MDA-MB-231 cells assessed as early apoptotic cells at 20 uM incubated for 48 hrs by Annexin V-FITC/PI staining based flow cytometric analysis (reference value: 2.25 %); format: functional
[3] = Toxicity in female BALB/C mouse implanted with mouse 4T1 cells assessed as change in number of platelets at 20 to 50 mg/kg, iv administered every two days for 21 days by routine blood analysis; format: organism-based; conditions: in vivo, 504 h, dose 20-50 mg/kg, time 21 day
[4] = Toxicity in female BALB/C mouse implanted with mouse 4T1 cells assessed as change in serum BUN level at 20 to 50 mg/kg, iv administered every two days for 21 days; format: organism-based; conditions: in vivo, 504 h, dose 20-50 mg/kg, time 21 day
[5] = Toxicity in female BALB/C mouse implanted with mouse 4T1 cells assessed as change in serum CREA level at 20 to 50 mg/kg, po administered every two days for 21 days; format: organism-based; conditions: in vivo, 504 h, dose 20-50 mg/kg, time 21 day
[6] = Toxicity in female BALB/C mouse implanted with mouse 4T1 cells assessed as effect on monocytes at 20 to 50 mg/kg, po administered every two days for 21 days by routine blood analysis; format: organism-based; conditions: in vivo, 504 h, dose 20-50 mg/kg, time 21 day
[7] = Toxicity in female BALB/C mouse implanted with mouse 4T1 cells assessed as effect on neutrophils at 20 to 50 mg/kg, iv administered every two days for 21 days by routine blood analysis; format: organism-based; conditions: in vivo, 504 h, dose 20-50 mg/kg, time 21 day
[8] = Toxicity in female BALB/C mouse implanted with mouse 4T1 cells assessed as change in WBC level at 20 to 50 mg/kg, po administered every two days for 21 days by routine blood analysis; format: organism-based; conditions: in vivo, 504 h, dose 20-50 mg/kg, time 21 day
[9] = Toxicity in female BALB/C mouse implanted with mouse 4T1 cells assessed as change in serum LDH level at 20 to 50 mg/kg, po administered every two days for 21 days; format: organism-based; conditions: in vivo, 504 h, dose 20-50 mg/kg, time 21 day
MDA-MB-231 [10] = experiment: Cell cycle arrest in human MDA-MB-231 cells assessed as G1 phase cells at 20 uM incubated for 48 hrs by PI staining based flow cytometric analysis (reference value: 56.7%); format: functional
MDA-MB-231 [11] = experiment: Induction of apoptosis in human MDA-MB-231 cells assessed as necrotic cells at 5 uM incubated for 48 hrs by Annexin V-FITC/PI staining based flow cytometric analysis (reference value: 1.63%); format: functional
MDA-MB-231 [12] = experiment: Induction of apoptosis in human MDA-MB-231 cells assessed as viable cells at 2.5 uM incubated for 48 hrs by Annexin V-FITC/PI staining based flow cytometric analysis (reference value: 95.10%); format: functional; conditions: read-out: Activity
MDA-MB-231 [13] = experiment: Induction of apoptosis in human MDA-MB-231 cells assessed as necrotic cells at 20 uM incubated for 48 hrs by Annexin V-FITC/PI staining based flow cytometric analysis (reference value: 1.63%); format: functional
[14] = Toxicity in female BALB/C mouse implanted with mouse 4T1 cells assessed as heart damage at 20 to 50 mg/kg, iv administered every two days for 21 days by H and E staining based analysis; format: organism-based; conditions: in vivo, 504 h, dose 20-50 mg/kg, time 21 day
[15] = Toxicity in female BALB/C mouse implanted with mouse 4T1 cells assessed as kidney damage at 20 to 50 mg/kg, iv administered every two days for 21 days by H and E staining based analysis; format: organism-based; conditions: in vivo, 504 h, dose 20-50 mg/kg, time 21 day
[16] = Toxicity in female BALB/C mouse implanted with mouse 4T1 cells assessed as change in RBC level at 20 to 50 mg/kg, po administered every two days for 21 days by routine blood analysis; format: organism-based; conditions: in vivo, 504 h, dose 20-50 mg/kg, time 21 day
[17] = Toxicity in female BALB/C mouse implanted with mouse 4T1 cells assessed as change in serum AST level at 20 to 50 mg/kg, iv administered every two days for 21 days; format: organism-based; conditions: in vivo, 504 h, dose 20-50 mg/kg, time 21 day
MDA-MB-231 [18] = experiment: Cell cycle arrest in human MDA-MB-231 cells assessed as G1 phase cells at 20 uM incubated for 24 hrs by PI staining based flow cytometric analysis (reference value: 56.7%); format: functional
MDA-MB-231 [19] = experiment: Induction of apoptosis in human MDA-MB-231 cells assessed as late apoptotic cells at 20 uM incubated for 48 hrs by Annexin V-FITC/PI staining based flow cytometric analysis (reference value: 1.06%); format: functional
MDA-MB-231 [20] = experiment: Effect on cell morphology in human MDA-MB-231 cells at 2.5 to 10 uM incubated for 24 hrs by wound healing assay; format: functional, cell-based; conditions: dose 2.5-10 µM
MDA-MB-231 [21] = experiment: Cell cycle arrest in human MDA-MB-231 cells assessed as G1 phase cells at 10 uM incubated for 48 hrs by PI staining based flow cytometric analysis (reference value: 76.7%); format: functional
[22] = Toxicity in female BALB/C mouse implanted with mouse 4T1 cells assessed as lung damage at 20 to 50 mg/kg, iv administered every two days for 21 days by H and E staining based analysis; format: organism-based; conditions: in vivo, 504 h, dose 20-50 mg/kg, time 21 day
MDA-MB-231 [23] = experiment: Induction of apoptosis in human MDA-MB-231 cells assessed as late apoptotic cells at 5 uM incubated for 48 hrs by Annexin V-FITC/PI staining based flow cytometric analysis (reference value: 1.06%); format: functional
MDA-MB-231 [24] = experiment: Cell cycle arrest in human MDA-MB-231 cells assessed as S phase cells at 20 uM incubated for 48 hrs by PI staining based flow cytometric analysis (reference value: 16.0%); format: functional
MDA-MB-231 [25] = experiment: Induction of apoptosis in human MDA-MB-231 cells assessed as early apoptotic cells at 2.5 uM incubated for 48 hrs by Annexin V-FITC/PI staining based flow cytometric analysis (reference value: 2.25 %); format: functional
4T1 = experiment: Antitumor activity against mouse 4T1 cells implanted in female BALB/C mouse assessed as inhibition of tumor weight at 20 mg/kg, iv administered every two days for 21 days relative to control; format: functional, organism-based; conditions: time 21.0 day
[26] = Toxicity in female BALB/C mouse implanted with mouse 4T1 cells assessed as change in number of platelets at 20 to 50 mg/kg, po administered every two days for 21 days by routine blood analysis; format: organism-based; conditions: in vivo, 504 h, dose 20-50 mg/kg, time 21 day
MDA-MB-231 [27] = experiment: Induction of apoptosis in human MDA-MB-231 cells assessed as viable cells at 5 uM incubated for 48 hrs by Annexin V-FITC/PI staining based flow cytometric analysis (reference value: 95.10%); format: functional; conditions: read-out: Activity
[28] = Toxicity in female BALB/C mouse implanted with mouse 4T1 cells assessed as spleen damage at 20 to 50 mg/kg, iv administered every two days for 21 days by H and E staining based analysis; format: organism-based; conditions: in vivo, 504 h, dose 20-50 mg/kg, time 21 day
MDA-MB-231 [29] = experiment: Cell cycle arrest in human MDA-MB-231 cells assessed as G1 phase cells at 20 uM incubated for 48 hrs by PI staining based flow cytometric analysis (reference value: 76.7%); format: functional
[30] = Toxicity in female BALB/C mouse implanted with mouse 4T1 cells assessed as change in serum BUN level at 20 to 50 mg/kg, po administered every two days for 21 days; format: organism-based; conditions: in vivo, 504 h, dose 20-50 mg/kg, time 21 day
MDA-MB-231 [31] = experiment: Cell cycle arrest in human MDA-MB-231 cells assessed as G2 phase cells at 10 uM incubated for 48 hrs by PI staining based flow cytometric analysis (reference value: 7.3%); format: functional
A549 = experiment: Antiproliferative activity against human A549 cells assessed as reduction in cell viability incubated for 96 hrs by MTT assay; conditions: A549, 96 h

CCC(=O)NC(n1cnc2c(Nc3cc(OC)c(OC)c(OC)c3)nc(N)nc21)C(Cl)(Cl)Cl (stereo not drawn)
Activity [1]: Non-Toxic
Activity (MDA-MB-231 [2]): 5.41%
Activity [3]: Non-Toxic
Activity [4]: Non-Toxic
Activity [5]: Non-Toxic
Activity [6]: Non-Toxic
Activity [7]: Non-Toxic
Activity [8]: Non-Toxic
Activity [9]: Non-Toxic
Activity (MDA-MB-231 [10]): 41%
Activity (MDA-MB-231 [11]): 0.96%
viability at 2.5 µM (MDA-MB-231 [12]): 95.7%
Activity (MDA-MB-231 [13]): 0.99%
Activity [14]: Non-Toxic
Activity [15]: Non-Toxic
Activity [16]: Non-Toxic
Activity [17]: Non-Toxic
Activity (MDA-MB-231 [18]): 32.3%
Activity (MDA-MB-231 [19]): 1.96%
Activity (MDA-MB-231 [20]): inactive
Activity (MDA-MB-231 [21]): 77.5%
Activity [22]: Non-Toxic
Activity (MDA-MB-231 [23]): 1.87%
Activity (MDA-MB-231 [24]): 11.6%
Activity (MDA-MB-231 [25]): 1.34%
Activity (4T1): inactive
Activity [26]: Non-Toxic
viability at 5 µM (MDA-MB-231 [27]): 92.8%
Activity [28]: Non-Toxic
Activity (MDA-MB-231 [29]): 59%
Activity [30]: Non-Toxic
Activity (MDA-MB-231 [31]): 10.6%
IC50 (A549): 6.47 µM
